Tested on: NC09 H1N1 virus
Format: in vivo
Details: unimmunized mice, 20 mg/kg/day

CCOC(=O)C1=C[C@@H](OC(CC)CC)[C@H](NC(C)=O)[C@@H](N)C1 [oseltamivir]
control of NC09 viral infection: but not NC09
